# From patent US9963498B2, “Peptides that inhibit syndecan-1 activation of VLA-4 and IGF-1R” (Wisconsin Alumni Research Foundation, priority 2016, dated 2018)
# Entries after “also recorded” stand apart in the source; their conditions may differ. Where no end group is shown, it is not given here.
# Assays:
# [1] = system: B78 murine melanoma cells; assay: Melanoma cell survival (trypan blue exclusion); format: cell-based, mouse; details: up to 72 hr, 30 μM
# Procedure: FIG. 18. SSTNI/V BLOCKS SURVIVAL OF MOUSE MELANOMA CELLS. B78 murine melanoma cells grown in serum-containing DMEM are incubated for up to 72 hr in 30 μM SSTNVLA4, SSTNIGF1R or SSTNI/V, then viable cells were quantified by trypan blue exclusion.
# All cells were cultured at 37° C. and 92.5% air/7.5% CO2. The derivation and culture of CAG myeloma and HMEC-1 cells are described previously (Ades et al. 1992, Rapraeger et al. 2013). B78 murine melanoma cells were kindly provided by Dr. Sondel, Department of Pediatrics, University of Wisconsin-Madison. All cells are routinely screened for mycoplasma contamination. For viability studies, 2.5×10^4 myeloma cells/well or 10^4 B78 murine melanoma cells were plated in 96-well plates in complete DMEM containing 10% calf serum in the presence or absence of SSTN peptides for 24, 48 or 72 hrs. Numbers of viable cells were then determined by addition of CellTiter-GLO reagent to the culture medium as described by the manufacturer and viable cells determined by staining with 0.4% trypan blue and counting cells that exclude (viable) or take up (dead) the stain.
# [2] = SSTN stability assay in mouse serum; format: in vitro ADME; details: for stability (activity retained): mouse serum, 3 days (SSTNIGF1R: more than 3 days); for stability (activity retained) / stability in serum (in words): 37° C.; for stability in serum (in words): mouse (rodent) serum, up to 72 hr
# Procedure: FIG. 16. SSTNI/V IS STABLE IN RODENT SERUM, EQUIVALENT TO SSTNIGF1R AND SSTNVLA4. SSTNI/V, SSTNIGF1R and SSTNVLA4 were incubated at 37° C. for up to 72 hr in mouse serum. Note that rodent serum is known to contain substantial proteolytic activity against peptides. A GRGDSP integrin-inhibitory peptide was used as control, tested against endothelial cell adhesion to fibronectin. Either myeloma cell viability, or endothelial cell adhesion to IIICS fragment was used to test the activity of the SSTN peptides. SSTN peptides were used at up to 30 μM, and the GRGDSP peptide was used up to 1 mM. Activity observed in the assays was plotted against a standard curve to determine relative activity.
# (§1) For stability assays, SSTNIGF1R, SSTNVLA4, SSTNI/V and GRGDSP peptide (SEQ ID NO:31; EMD Millipore) were incubated in human plasma (obtained from the UW-Madison Hospital Blood Bank) for 0, 8, 24 or 72 hr, then tested in the endothelial cell adhesion assay or cell viability assay and compared to a standard curve generated using fresh peptide.
# [3] = system: myeloma, melanoma, microvascular endothelial and T-lymphoma cells; assay: Migration through filters coated with VCAM-1; format: cell-based; details: 16 hr, 30 μM
# Procedure: (§2) FIGS. 11A, 11B, 11C, and 11D. […] 11A. CAG myeloma, mouse M21 melanoma, human microvascular endothelial and Jurkat T-lymphoma cells are plated on VCAM-1 for 2 hr in the presence or absence of 30 μM SSTNVLA4 or VLA-4 blocking antibody as a test of specificity. Numbers of adherent cells are quantified and expressed as a percentage of control, untreated cells in FIG. 11B. 11C. Cells are plated on top of filters coated with VCAM-1 allowed to migrate for 16 hr in the presence or absence of 30 μM SSTNVLA4. Cells accumulating on the bottom of the filters are visualized by staining. 11D. Expression level of Sdc1 and VLA-4 are shown by Western blot staining of mouse natural killer (NK) and T-cells harvested from mouse spleens.
# VEGFR2 = details: 2 h on IIICS, 10 μM; modified from Jung et al. 2016; cited from earlier work
# [4] = system: M21 murine melanoma cells; assay: Melanoma cell invasion through filters coated with fibronectin; format: cell-based, mouse; details: 16 hr, 30 μM peptide
# Procedure: FIG. 17. […] M21 murine melanoma cells are allowed to migrate for 16 hr through filters coated with fibronectin. The relative roles of the αvβ3 integrin and the α4β1 integrin (VLA-4) are determined using blocking antibodies to αv and α4 integrin subunits, or both antibodies combined.
# HMEC-1 cells = details: 20 ng/ml VEGF, 30 μM, 24 h; modified from Jung et al. 2016; cited from earlier work
# HMEC-1 = details: 16 h, 30 μM; modified from Jung et al. 2016; cited from earlier work
# [5] = system: CAG myeloma, mouse M21 melanoma, human microvascular endothelial and Jurkat T-lymphoma cells; assay: Cell adhesion to VCAM-1; format: cell-based; details: 2 hr, 30 μM
# Procedure: as §2
# CAG myeloma cells = CAG myeloma cells plated on FN for 2.5 hr; 0, 0.3, 3, or 30 μM; modified from Jung et al. 2016; cited from earlier work
# [6] = Beauvais et al., 2016; cited from earlier work
# [7] = system: angiogenesis in the mouse cornea; details: induced by FGF in the mouse cornea; Beauvais et al., 2009; cited from earlier work
# [8] = system: HaCaT keratinocytes and MCF10A breast epithelial cells; details: 3, 10 or 30 μM, 3 days; Beauvais et al. 2016; cited from earlier work
# [9] = system: Apoptosis signal regulating kinase-1 (ASK1); details: CAG or MM.1R myeloma cells, 6 hr, 10 μM; modified from Beauvais et al. 2016; cited from earlier work
# [10] = SSTN stability assay in human plasma; format: in vitro ADME; details: more than 3 days at 37° C.
# Procedure: as §1
# [11] = system: UM-SCC47, SCC25, MDA-MB-468, MDA-MB-231, MCF-7 and SKBr3 carcinoma cells; details: 3, 10 or 30 μM, 3 days; Beauvais et al. 2016; cited from earlier work
# [12] = SSTN stability in bovine serum; format: in vitro ADME; details: more than 3 days at 37° C.
# [13] = system: CAG myeloma tumor xenografts; details: nude mice, Alzet pumps 0.365 mg/kg/day, 4 weeks; modified from Beauvais et al. 2016; cited from earlier work
# [14] = Beauvais et al., 2016; plasma species not printed at the place; cited from earlier work
molecule,measurement,setting,value
"SSTNVLA4: peptide mimetic of the VLA-4 binding site of Sdc1, comprised of amino acids 210-233 (or 210-221) (DFTFETSGENTAVVAVEPDRRNQS)",melanoma cell survival,[1],only a minimal effect; also recorded: only minimally
same,stability (activity retained),[2],100%
same,invasion of cells through VCAM-1-coated filters,[3],BLOCKS THE INVASION
same,invasion of cells through VCAM-1-coated filters,[3]; listed as SSTNVLA-4,prevented
same,VEGFR2 activation,VEGFR2,BLOCKS
same,block of melanoma cell invasion,[4],partially block; also recorded: partial block
same,tube formation,HMEC-1 cells,prevents the angiogenic phenotype; also recorded: BLOCKS
same,endothelial cell invasion,HMEC-1,BLOCKS
same,binding of cells to the VLA-4 ligand VCAM-1,[5],prevented
same,VLA-4-mediated adhesion of myeloma cells,CAG myeloma cells,displaced from VLA-4 ligands; also recorded: BLOCKS
SSTNIGF1R: peptide mimetic of the Sdc1 docking site (aa93-120 in human Sdc1) that captures IGF-1R and the αvβ3 or αvβ5 integrin,melanoma cell survival,[1],killed; also recorded: blocked
same,half-life in vivo,[6],ca. 27 hr
same,abnormal angiogenesis in vivo,[7],block abnormal angiogenesis
same,growth of normal epithelial cells,[8],not affected and NOT
same,ASK-1 activation,[9],ACTIVATES
same,stability (activity retained),[10],100%
same,stability (activity retained),[2],100%
same,growth of carcinoma cells,[11],BLOCKS THE GROWTH
same,stability (activity retained),[12],100%
same,block of melanoma cell invasion,[4],partially block; also recorded: partial block
same,growth of myeloma tumors,[13],INHIBITS GROWTH
same,stability when incubated in plasma,[14],remarkable stability
N=C(N)NCCC[C@H](NC(=O)CN)C(=O)NCC(=O)N[C@@H](CC(=O)O)C(=O)N[C@@H](CO)C(=O)N1CCC[C@H]1C(=O)O [GRGDSP],time to complete inactivation,"[2]; control peptide, tested by endothelial cell adhesion to fibronectin",≤ 8 h
same,stability in serum (in words),[2],destroyed within a matter of a few hr
LPAGEGPKEGEAVVLPEVEPGLTAREQDFTFETSGENTA [SSTNI/V],stability in serum (in words),[2],highly stable; also recorded: same remarkable stability
same,stability (activity retained),[2],100%
